Measured values published in US6214792A, “Method for treating acute and severe diarrhea” (priority 1999, dated 2001).

Tests used:
[1] = test system: patient addicted to narcotics; assay: Clinical treatment of acute and severe diarrhea accompanying rapid narcotic detoxification (acute withdrawal); assay type: in vivo, human; details: parenteral, about 0.025 mg to about 0.1 mg octreotide, preferably about 0.0007 mg/kg, before nalmefene
Method: A medication to induce unconsciousness is administered, preferably by the intravenous route, in doses appropriate for the patient's weight and medical condition. This medication should be a non-opioid derivative not related to the narcotic classification of drugs, such as midazolam, propofol, sodium pentothal, a combination thereof, or other drugs commonly used to induce unconsciousness. As a specific example, a dose of 0.3 milligrams of midazolam per kilogram of body weight administered intravenously is usually sufficient to produce unconsciousness.
After octreotide and glycopyrrolate have been administered and the patient's vital signs are stable, nalmefene is administered parenterally, preferably by intravenous route. For a 70 kilogram adult patient, the typical initial dose of parenteral nalmefene is from about 0.5-1.5 mg to no more than about 1.5-2.0 of nalmefene. The dosage is adjusted proportionally based on the weight of the patient, and the rate of administration of nalmefene may be titrated upward or downward depending on the response of the patient's sympathetic nervous system as evidence by monitoring of life functions and other clinical criteria. Some time thereafter, usually no more than four hours after said administration of nalmefene is complete, the patient can be expected to be detoxified and can be safely rendered back to a state of consciousness. […]

[2] = test system: patient addicted to narcotics; details: background statement, prior practice, dose not given; cited from earlier work
[3] = test system: patient addicted to narcotics; details: background statement, prior practice, dose not given; cited from earlier work; remark: listed apart in the source
[4] = test system: patient addicted to narcotics; assay: Clinical tolerability (bradycardia, abdominal distention) of octreotide during rapid narcotic detoxification; details: parenteral
Source text: A patient addicted to narcotics undergoes intravenous cannulation by either the peripheral or central venous route, and the appropriate intravenous solution is infused intravenously at the required rate for the size and conditions of the patient. Monitors of life function are attached to the patient which may include a pulse oximeter, electrocardiogram patches, a blood pressure cuff attached to a sphygmomanometer and a means to measure the carbon dioxide of the patient's exhaled breath by way of capnography.
This is typically followed by intravenous administration of a medication such as a depolarizing or non-depolarizing neuromuscular blocking agent to facilitate intubation of the patient's trachea. The endotracheal tube is then secured in the correct anatomic position using usual anesthetic care measures. After stabilization of the patient's life functions as usually done in routine anesthetic management, the patient is administered parenterally about 0.025 mg to about 0.1 mg octreotide, preferably about 0.0007 mg/kg of body weight.
As noted previously, glycopyrrolate is preferred and is administered parenterally with the octreotide in an amount ranging from about 0.2 mg to above 0.4 mg glycopyrrolate. However, from about 0.2 mg to about 0.4 mg atropine administered parenterally is also effective.

For octreotide, the “prevention of acute and severe diarrhea accompanying acute detoxification” value [1] is listed as “sufficient to prevent the acute and severe diarrhea”, the “treating clinically significant diarrhea during rapid detoxification” value [2] is listed as “proven effective” and the incidence of bradycardia [3] is listed as “unacceptable incidence of bradycardia”. For the same substance, the “bradycardia in the post-detoxification period” value ([4]; about 0.025 mg to about 0.05 mg octreotide every 12 hours) was “without causing significant bradycardia”, the bradycardia ([4]; about 0.025 mg to about 0.1 mg octreotide, preferably about 0.0007 mg/kg) was “does not precipitate significant bradycardia” and the abdominal distention ([4]; about 0.025 mg to about 0.1 mg octreotide, distention frequently observed at higher dosage levels) was “does not result in the abdominal distention”.
